Activity calls are given as the source filed them. The rule behind the calls is not given here.
Key:
[1] = tested on: 786-0; test: Antiinvasive activity against human 786-0 cells measured spheroid invasion assay; type: functional, cell-based
[2] = tested on: UOK117; test: Antitumor activity in human UOK117 cells xenografted nude mouse assessed as suppression of tumor growth; type: functional, cell-based
[3] = tested on: MDA-MB-231; test: Antitumor activity in human MDA-MB-231-Luc cells xenografted immunodeficient mouse assessed as reduction in lung metastasis at 100 mg/kg, po administered for 28 days; type: functional; set-up: scale not given: the % may be the effect or the level left; conditions: time 28 day
[4] = tested on: MCF-10A; test: Antiinvasive activity against human MCF-10A cells measured spheroid invasion assay; type: functional, cell-based
[5] = tested on: MDA-MB-231; test: Anticancer activity against human MDA-MB-231 cells at 156.25 to 1250 uM assessed as suppression of tumor cell tendrils spreading formation measured by 3D tumor cell spheroid assay; type: functional, cell-based; conditions: dose 156.25-1250 µM
[6] = target: T1, Sulfhydryl oxidase 1 (Homo sapiens) (UniProt O00391); test: Inhibition of QSOX1 (unknown origin) at 6.25 to 50 uM relative to control; conditions: dose 6.25-50 µM
T1 sequence (whole entry): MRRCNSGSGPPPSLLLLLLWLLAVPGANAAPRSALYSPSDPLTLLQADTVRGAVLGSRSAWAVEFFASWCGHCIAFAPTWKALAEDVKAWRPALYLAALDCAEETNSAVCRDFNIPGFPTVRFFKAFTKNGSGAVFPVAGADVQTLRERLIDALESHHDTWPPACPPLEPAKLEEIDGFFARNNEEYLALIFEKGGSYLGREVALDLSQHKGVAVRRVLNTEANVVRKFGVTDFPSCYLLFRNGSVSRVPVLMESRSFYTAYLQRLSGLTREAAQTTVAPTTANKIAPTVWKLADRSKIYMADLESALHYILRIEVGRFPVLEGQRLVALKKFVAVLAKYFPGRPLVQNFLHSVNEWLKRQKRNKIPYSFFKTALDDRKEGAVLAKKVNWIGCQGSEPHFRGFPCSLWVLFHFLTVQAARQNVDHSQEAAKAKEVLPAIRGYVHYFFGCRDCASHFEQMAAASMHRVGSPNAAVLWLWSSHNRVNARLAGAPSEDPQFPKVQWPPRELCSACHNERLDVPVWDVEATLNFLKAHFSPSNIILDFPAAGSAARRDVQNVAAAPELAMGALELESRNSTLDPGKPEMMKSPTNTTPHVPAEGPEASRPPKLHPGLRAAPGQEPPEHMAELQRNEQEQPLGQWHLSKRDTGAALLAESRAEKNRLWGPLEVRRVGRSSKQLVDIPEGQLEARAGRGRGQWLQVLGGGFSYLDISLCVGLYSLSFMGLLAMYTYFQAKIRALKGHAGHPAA

[7] = tested on: RCJ-41T2; test: Antiinvasive activity against human RCJ-41T2 cells at 156.25 to 1250 uM measured spheroid invasion assay; type: functional, cell-based; conditions: dose 156.25-1250 µM
[8] = target: T2, Sulfhydryl oxidase 1 (Homo sapiens, UniProt O00391); test: Binding affinity towards QSOX1 (unknown origin) measured by microscale thermophoresis assay
T2 sequence (O00391 whole entry): T1 sequence (whole entry)

[9] = tested on: MIA PaCa-2; test: Antiinvasive activity against human MIA PaCa-2 cells measured spheroid invasion assay; type: functional, cell-based
[10] = tested on: 786-0; test: Antitumor activity in human 786-0 cells xenografted immunodeficient mouse assessed as reduction in tumor growth at 14 mg/kg/day, po; type: functional; conditions: 786-0, po, read-out: TGI

## COc1cccc(C(=O)Nc2ccc(N3CCCC3)cc2)c1
[1]
  Activity: Active
[2]
  Activity: Active
[3]
  Activity: 76%
[4]
  Activity: Active
[5]
  Activity: Active
[6]
  inhibition: Active
[7]
  Activity: Active
[8]
  Kd: 20 µM
[9]
  Activity: Active
[10]
  inhibition in vivo at 14 mg/kg/day: 51%

From ChEMBL document CHEMBL5052850, “Compounds and methods targeting qsox1” (2021)
